Results: patent US20250100968A1, “BICYCLIC-HETEROCYCLE DERIVATIVES AND RELATED USES” (CENTESSA PHARMACEUTICALS (UK) LIMITED, priority 2022, published 2025)

molecular target: T1, human orexin type 2 receptor (hOX2R) (Homo sapiens, UniProt O43614); test: cell-based
T1 sequence (O43614 1-444): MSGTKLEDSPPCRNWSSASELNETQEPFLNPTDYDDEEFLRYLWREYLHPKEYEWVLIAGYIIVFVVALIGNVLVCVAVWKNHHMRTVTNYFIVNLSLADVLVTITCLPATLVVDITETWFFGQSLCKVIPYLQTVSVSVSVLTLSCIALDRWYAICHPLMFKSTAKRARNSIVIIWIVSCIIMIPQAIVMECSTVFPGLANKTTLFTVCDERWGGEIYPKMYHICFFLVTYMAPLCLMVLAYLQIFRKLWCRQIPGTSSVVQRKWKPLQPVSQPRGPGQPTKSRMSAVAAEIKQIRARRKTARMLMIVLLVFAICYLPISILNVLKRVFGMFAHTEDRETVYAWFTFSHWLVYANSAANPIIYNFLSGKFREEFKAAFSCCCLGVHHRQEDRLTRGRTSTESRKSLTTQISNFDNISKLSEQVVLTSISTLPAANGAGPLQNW
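Note: agonist activity in CHO cells stably expressing hOX2R, intracellular Ca2+ via Calcium 5 dye fluorescence area over 2 min, buffer-only as 0% and 10 nM orexin A as 100%.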

Row | EC50 [nM] | Structure (SMILES)
1 | 0.0631 to 1 | C[C@H](CF)NC(=O)N1CC2(CC2)[C@H](NS(=O)(=O)CF)[C@@H]1Cc1cccc(-c2cc(F)cc(F)c2)c1F [compound 61, (6S,7S)-7-((fluoromethyl)sulfonamido)-N-((R)-1-fluoropropan-2-yl)-6-((2,3′,5′-trifluoro-[1,1′-biphenyl]-3-yl)methyl)-5-azaspiro[2.4]heptane-5-carboxamide]
2 | 1 to 10 | C[C@H](C#N)C(=O)N1CC2(CC2)[C@H](NS(=O)(=O)CF)[C@@H]1Cc1cccc(-c2cc(F)cc(F)c2)c1F [compound 62, N-((6S,7S)-5-((R)-2-cyanopropanoyl)-6-((2,3′,5′-trifluoro-[1,1′-biphenyl]-3-yl)methyl)-5-azaspiro[2.4]heptan-7-yl)-1-fluoromethanesulfonamide]
3 | 1 to 10 | C[C@@H](C#N)C(=O)N1CC2(CC2)[C@H](NS(=O)(=O)CF)[C@@H]1Cc1cccc(-c2cc(F)cc(F)c2)c1F [compound 63, N-((6S,7S)-5-((S)-2-cyanopropanoyl)-6-((2,3′,5′-trifluoro-[1,1′-biphenyl]-3-yl)methyl)-5-azaspiro[2.4]heptan-7-yl)-1-fluoromethanesulfonamide]
4 | 1 to 10 | CO[C@H](C)C(=O)N1CC2(CC2)[C@H](NS(=O)(=O)C(F)F)[C@@H]1Cc1cccc(-c2cc(F)cc(F)c2)c1F [compound 64, 1,1-difluoro-N-((6S,7S)-5-((R)-2-methoxypropanoyl)-6-((2,3′,5′-trifluoro-[1,1′-biphenyl]-3-yl)methyl)-5-azaspiro[2.4]heptan-7-yl)methanesulfonamide]
5 | 1 to 10 | CO[C@@H](C)C(=O)N1CC2(CC2)[C@H](NS(=O)(=O)C(F)F)[C@@H]1Cc1cccc(-c2cc(F)cc(F)c2)c1F [compound 65, 1,1-difluoro-N-((6S,7S)-5-((S)-2-methoxypropanoyl)-6-((2,3′,5′-trifluoro-[1,1′-biphenyl]-3-yl)methyl)-5-azaspiro[2.4]heptan-7-yl)methanesulfonamide]
6 | 1 to 10 | COC[C@@H](F)C(=O)N1CC2(CC2)[C@H](NS(=O)(=O)C(F)F)[C@@H]1Cc1cccc(-c2cc(F)cc(F)c2)c1F [compound 66, 1,1-difluoro-N-((6S,7S)-5-((R)-2-fluoro-3-methoxypropanoyl)-6-((2,3′,5′-trifluoro-[1,1′-biphenyl]-3-yl)methyl)-5-azaspiro[2.4]heptan-7-yl)methanesulfonamide]
7 | 1 to 10 | CO[C@H](C)C(=O)N1CC2(CC2)[C@H](NS(=O)(=O)CF)[C@@H]1Cc1cccc(-c2cc(F)cc(F)c2)c1F [compound 68, 1-fluoro-N-((6S,7S)-5-((R)-2-methoxypropanoyl)-6-((2,3′,5′-trifluoro-[1,1′-biphenyl]-3-yl)methyl)-5-azaspiro[2.4]heptan-7-yl)methanesulfonamide]
8 | 0.0631 to 1 | CO[C@@H](C)C(=O)N1CC2(CC2)[C@H](NS(=O)(=O)CF)[C@@H]1Cc1cccc(-c2cc(F)cc(F)c2)c1F [compound 69, 1-fluoro-N-((6S,7S)-5-((S)-2-methoxypropanoyl)-6-((2,3′,5′-trifluoro-[1,1′-biphenyl]-3-yl)methyl)-5-azaspiro[2.4]heptan-7-yl)methanesulfonamide]
9 | 1 to 10 | C[C@@H](C#N)C(=O)N1CC2(CC2)[C@H](NS(=O)(=O)C(F)F)[C@@H]1Cc1cccc(-c2cc(F)cc(F)c2)c1F [compound 70, N-((6S,7S)-5-((S)-2-cyanopropanoyl)-6-((2,3′,5′-trifluoro-[1,1′-biphenyl]-3-yl)methyl)-5-azaspiro[2.4]heptan-7-yl)-1,1-difluoromethanesulfonamide]
10 | 0.0631 to 1 | CC(C)(F)CNC(=O)N1CC2(CC2)[C@H](NS(=O)(=O)C(F)F)[C@@H]1Cc1cccc(-c2cccc(F)c2)c1F [compound 71, (6S,7S)-6-((2,3′-difluoro-[1,1′-biphenyl]-3-yl)methyl)-7-((difluoromethyl)sulfonamido)-N-(2-fluoro-2-methylpropyl)-5-azaspiro[2.4]heptane-5-carboxamide]
11 | 0.0631 to 1 | C[C@@](O)(CF)C(=O)N1CC2(CC2)[C@H](NS(=O)(=O)CF)[C@@H]1Cc1cc(F)cc(-c2ccccc2)c1F [compound 72, N-((6S,7S)-6-((2,5-difluoro-[1,1′-biphenyl]-3-yl)methyl)-5-((S)-3-fluoro-2-hydroxy-2-methylpropanoyl)-5-azaspiro[2.4]heptan-7-yl)-1-fluoromethanesulfonamide]
12 | 1 to 10 | CC(C)(F)CNC(=O)N1CC2(CC2)[C@H](NS(=O)(=O)CF)[C@@H]1Cc1cccc(-c2cccc(F)c2)c1F [compound 73, (6S,7S)-6-((2,3′-difluoro-[1,1′-biphenyl]-3-yl)methyl)-N-(2-fluoro-2-methylpropyl)-7-((fluoromethyl)sulfonamido)-5-azaspiro[2.4]heptane-5-carboxamide]
13 | 1 to 10 | CC(F)(F)CNC(=O)N1CC2(CC2)[C@H](NS(=O)(=O)CF)[C@@H]1Cc1cc(F)cc(-c2ccccc2)c1F [compound 74, (6S,7S)-6-((2,5-difluoro-[1,1′-biphenyl]-3-yl)methyl)-N-(2,2-difluoropropyl)-7-((fluoromethyl)sulfonamido)-5-azaspiro[2.4]heptane-5-carboxamide]
14 | 1 to 10 | C[C@@](O)(C(=O)N1CC2(CC2)[C@H](NS(=O)(=O)C(F)F)[C@@H]1Cc1cccc(-c2ccccc2)c1F)C1CC1 [compound 75, N-((6S,7S)-5-((S)-2-cyclopropyl-2-hydroxypropanoyl)-6-((2-fluoro-[1,1′-biphenyl]-3-yl)methyl)-5-azaspiro[2.4]heptan-7-yl)-1,1-difluoromethanesulfonamide]
15 | 0.0631 to 1 | N#CC1(C(=O)N2CC3(CC3)[C@H](NS(=O)(=O)CF)[C@@H]2Cc2cc(F)cc(-c3ccccc3)c2F)CC1 [compound 76, N-((6S,7S)-5-(1-cyanocyclopropane-1-carbonyl)-6-((2,5-difluoro-[1,1′-biphenyl]-3-yl)methyl)-5-azaspiro[2.4]heptan-7-yl)-1-fluoromethanesulfonamide]
16 | 0.0631 to 1 | CC[C@@](C)(O)C(=O)N1CC2(CC2)[C@H](NS(=O)(=O)C(F)F)[C@@H]1Cc1cccc(-c2cc(F)cc(F)c2)c1F [compound 77, 1,1-difluoro-N-((6S,7S)-5-((R)-2-hydroxy-2-methylbutanoyl)-6-((2,3′,5′-trifluoro-[1,1′-biphenyl]-3-yl)methyl)-5-azaspiro[2.4]heptan-7-yl)methanesulfonamide]
17 | 1 to 10 | CC[C@](C)(O)C(=O)N1CC2(CC2)[C@H](NS(=O)(=O)C(F)F)[C@@H]1Cc1cccc(-c2cc(F)cc(F)c2)c1F [compound 78, 1,1-difluoro-N-((6S,7S)-5-((S)-2-hydroxy-2-methylbutanoyl)-6-((2,3′,5′-trifluoro-[1,1′-biphenyl]-3-yl)methyl)-5-azaspiro[2.4]heptan-7-yl)methanesulfonamide]
18 | 0.0631 to 1 | N#C[C@@]1(C(=O)N2CC3(CC3)[C@H](NS(=O)(=O)CF)[C@@H]2Cc2cccc(-c3cc(F)ccc3F)c2F)CCO1 [compound 79, N-((6S,7S)-5-((R)-2-cyanooxetane-2-carbonyl)-6-((2,2′,5′-trifluoro-[1,1′-biphenyl]-3-yl)methyl)-5-azaspiro[2.4]heptan-7-yl)-1-fluoromethanesulfonamide]
19 | 0.0631 to 1 | N#C[C@]1(C(=O)N2CC3(CC3)[C@H](NS(=O)(=O)CF)[C@@H]2Cc2cccc(-c3cc(F)ccc3F)c2F)CCO1 [compound 80, N-((6S,7S)-5-((S)-2-cyanooxetane-2-carbonyl)-6-((2,2′,5′-trifluoro-[1,1′-biphenyl]-3-yl)methyl)-5-azaspiro[2.4]heptan-7-yl)-1-fluoromethanesulfonamide]
20 | 1 to 10 | O=C(N1CC2(CC2)[C@H](NS(=O)(=O)CF)[C@@H]1Cc1cccc(-c2ccccc2)c1F)C1(CF)COC1 [compound 81, 1-fluoro-N-((6S,7S)-6-((2-fluoro-[1,1′-biphenyl]-3-yl)methyl)-5-(3-(fluoromethyl)oxetane-3-carbonyl)-5-azaspiro[2.4]heptan-7-yl)methanesulfonamide]
21 | 1 to 10 | CC(C)NC(=O)N1CC2(CC2)[C@H](NS(=O)(=O)CF)[C@@H]1Cc1cccc(-c2ccccc2)c1F [compound 82, (6S,7S)-6-((2-fluoro-[1,1′-biphenyl]-3-yl)methyl)-7-((fluoromethyl)sulfonamido)-N-isopropyl-5-azaspiro[2.4] heptane-5-carboxamide]
22 | 1 to 10 | C[C@@](O)(CF)C(=O)N1CC2(CC2)[C@H](NS(=O)(=O)CF)[C@@H]1Cc1cccc(-c2cc(F)cc(F)c2)c1F [compound 83, 1-fluoro-N-((6S,7S)-5-((S)-3-fluoro-2-hydroxy-2-methylpropanoyl)-6-((2,3′,5′-trifluoro-[1,1′-biphenyl]-3-yl)methyl)-5-azaspiro[2.4]heptan-7-yl)methanesulfonamide]
23 | 1 to 10 | C[C@](O)(C(=O)N1CC2(CC2)[C@H](NS(=O)(=O)CF)[C@@H]1Cc1cc(F)cc(-c2ccccc2)c1F)C(F)F [compound 84, N-((6S,7S)-5-((S)-3,3-difluoro-2-hydroxy-2-methylpropanoyl)-6-((2,5-difluoro-[1,1′-biphenyl]-3-yl)methyl)-5-azaspiro[2.4]heptan-7-yl)-1-fluoromethanesulfonamide]
24 | 1 to 10 | N#C[C@]1(C(=O)N2CC3(CC3)[C@H](NS(=O)(=O)CF)[C@@H]2Cc2cc(F)cc(-c3ccccc3)c2F)CCO1 [compound 85, N-((6S,7S)-5-((S)-2-cyanooxetane-2-carbonyl)-6-((2,5-difluoro-[1,1′-biphenyl]-3-yl)methyl)-5-azaspiro[2.4]heptan-7-yl)-1-fluoromethanesulfonamide]
